Reference: patent EP0087751B1, “Water-soluble peptides from very poorly soluble amino acids” (PFRIMMER KABI GMBH & CO. KG, priority 1982, dated 1985)
Converted amounts (≈) assume the structure as drawn. Values belong to the compound of their own block, whether it stands above or below them. Where a SMILES comes first, the peptide text is derived from it.

How the values were obtained:
[1] = Solubility in water
[2] = Solubility in water; format: physicochemical; conditions: for Löslichkeit: in water

- solubility [1]: 0.09 mg/mL (≈ 0.375 mM)
Compound: N[C@@H](CSSC[C@H](N)C(=O)O)C(=O)O [Cystin]

Compound: NCCCC[C@H](N)C(=O)O [Lysin]
- solubility [1]: 666 mg/mL (≈ 4560 mM)

- Löslichkeit ([2]; temperature not stated): 622 g/L H20
- Faktor besser löslich in Wasser als das freie Tyrosin ([2]; ratio of water solubility of the tripeptide to that of free Tyrosin): 1,62 . 10^3
Compound: N[C@@H](Cc1ccc(O)cc1)C(=O)NCCCC[C@H](NC(=O)[C@@H](N)Cc1ccc(O)cc1)C(=O)O [N^2-Tyrosinyl-N^6-tyrosinyl-lysin, N^2-Tyrosinyl-N^6-L-tyrosinyl-L-lysin] (H-Tyr-Lys(Tyr)-OH)

- Löslichkeit ([2]; 20°C): 125 g/L H20
Compound: N^2-Cystinyl-N^6-L-cystinyl-L-lysin [N^2,N^6-Di-L-cystinyl, L-lysin]
